From the NIST ThermoML archive (doi:10.1016/j.fluid.2015.12.053)
± gives the expanded uncertainty stated by the source.

Legend:
[1] = wn = mass fraction of the nth substance listed; settings: 100 kPa, Liquid, Pycnometric method
[2] = Liquid, Ebulliometric method (Recirculating still)

Structure (SMILES): Cl.Nc1ccccc1 [aniline hydrochloride] + O
- mass density ([1]; 298.15 K, w1 = 0.01): 1000 ± 1 kg/m3
- mass density ([1]; 298.15 K, w1 = 0.05): 1009.2 ± 0.3 kg/m3
- mass density ([1]; 298.15 K, w1 = 0.1): 1018.9 ± 0.3 kg/m3
- mass density ([1]; 298.15 K, w1 = 0.15): 1028.7 ± 0.3 kg/m3
- mass density ([1]; 298.15 K, w1 = 0.2): 1038.5 ± 0.3 kg/m3
- mass density ([1]; 298.15 K, w1 = 0.3): 1057.8 ± 0.3 kg/m3
- mass density ([1]; 298.15 K, w1 = 0.35): 1068 ± 1 kg/m3
- mass density ([1]; 298.15 K, w1 = 0.4): 1078.3 ± 0.3 kg/m3
- mass density ([1]; 303.15 K, w1 = 0.01): 997.4 ± 0.3 kg/m3
- mass density ([1]; 303.15 K, w1 = 0.05): 1007.3 ± 0.3 kg/m3
- mass density ([1]; 303.15 K, w1 = 0.1): 1016.3 ± 0.3 kg/m3
- mass density ([1]; 303.15 K, w1 = 0.15): 1026.6 ± 0.3 kg/m3
- mass density ([1]; 303.15 K, w1 = 0.2): 1036.8 ± 0.3 kg/m3
- mass density ([1]; 303.15 K, w1 = 0.3): 1056 ± 1 kg/m3
- mass density ([1]; 303.15 K, w1 = 0.35): 1065.8 ± 0.3 kg/m3
- mass density ([1]; 303.15 K, w1 = 0.4): 1075.6 ± 0.3 kg/m3
- mass density ([1]; 313.15 K, w1 = 0.01): 994.3 ± 0.3 kg/m3
- mass density ([1]; 313.15 K, w1 = 0.05): 1002.3 ± 0.3 kg/m3
- mass density ([1]; 313.15 K, w1 = 0.1): 1012.3 ± 0.3 kg/m3
- mass density ([1]; 313.15 K, w1 = 0.15): 1021.7 ± 0.3 kg/m3
- mass density ([1]; 313.15 K, w1 = 0.2): 1031 ± 1 kg/m3
- mass density ([1]; 313.15 K, w1 = 0.3): 1049.6 ± 0.3 kg/m3
- mass density ([1]; 313.15 K, w1 = 0.35): 1059.7 ± 0.4 kg/m3
- mass density ([1]; 313.15 K, w1 = 0.4): 1069.7 ± 0.4 kg/m3
- mass density ([1]; 323.15 K, w1 = 0.01): 989.5 ± 0.3 kg/m3
- mass density ([1]; 323.15 K, w1 = 0.05): 995.9 ± 0.3 kg/m3
- mass density ([1]; 323.15 K, w1 = 0.1): 1007.3 ± 0.3 kg/m3
- mass density ([1]; 323.15 K, w1 = 0.15): 1016.5 ± 0.3 kg/m3
- mass density ([1]; 323.15 K, w1 = 0.2): 1025.8 ± 0.3 kg/m3
- mass density ([1]; 323.15 K, w1 = 0.3): 1045.3 ± 0.4 kg/m3
- mass density ([1]; 323.15 K, w1 = 0.35): 1055.1 ± 0.4 kg/m3
- mass density ([1]; 323.15 K, w1 = 0.4): 1065 ± 1 kg/m3
- mass density ([1]; 323.15 K, w1 = 0.6): 1107.5 ± 0.4 kg/m3
- mass density ([1]; 333.15 K, w1 = 0.01): 985.6 ± 0.4 kg/m3
- mass density ([1]; 333.15 K, w1 = 0.05): 991.2 ± 0.4 kg/m3
- mass density ([1]; 333.15 K, w1 = 0.1): 1003.8 ± 0.4 kg/m3
- mass density ([1]; 333.15 K, w1 = 0.15): 1012.8 ± 0.4 kg/m3
- mass density ([1]; 333.15 K, w1 = 0.2): 1021.8 ± 0.4 kg/m3
- mass density ([1]; 333.15 K, w1 = 0.3): 1040.6 ± 0.4 kg/m3
- mass density ([1]; 333.15 K, w1 = 0.35): 1050.1 ± 0.4 kg/m3
- mass density ([1]; 333.15 K, w1 = 0.4): 1059.6 ± 0.4 kg/m3
- mass density ([1]; 333.15 K, w1 = 0.6): 1103.3 ± 0.4 kg/m3
- mass density ([1]; 343.15 K, w1 = 0.01): 979.1 ± 0.4 kg/m3
- mass density ([1]; 343.15 K, w1 = 0.05): 985.1 ± 0.4 kg/m3
- mass density ([1]; 343.15 K, w1 = 0.1): 997.1 ± 0.4 kg/m3
- mass density ([1]; 343.15 K, w1 = 0.15): 1005.9 ± 0.4 kg/m3
- mass density ([1]; 343.15 K, w1 = 0.2): 1014.7 ± 0.4 kg/m3
- mass density ([1]; 343.15 K, w1 = 0.3): 1033.5 ± 0.4 kg/m3
- mass density ([1]; 343.15 K, w1 = 0.35): 1043 ± 1 kg/m3
- mass density ([1]; 343.15 K, w1 = 0.4): 1052.5 ± 0.4 kg/m3
- mass density ([1]; 343.15 K, w1 = 0.6): 1097.1 ± 0.5 kg/m3
- mass density ([1]; 353.15 K, w1 = 0.01): 975.1 ± 0.4 kg/m3
- mass density ([1]; 353.15 K, w1 = 0.05): 980.7 ± 0.4 kg/m3
- mass density ([1]; 353.15 K, w1 = 0.1): 990.2 ± 0.5 kg/m3
- mass density ([1]; 353.15 K, w1 = 0.15): 998.8 ± 0.5 kg/m3
- mass density ([1]; 353.15 K, w1 = 0.2): 1007.4 ± 0.5 kg/m3
- mass density ([1]; 353.15 K, w1 = 0.3): 1026.7 ± 0.5 kg/m3
- mass density ([1]; 353.15 K, w1 = 0.35): 1036.3 ± 0.5 kg/m3
- mass density ([1]; 353.15 K, w1 = 0.4): 1045.9 ± 0.5 kg/m3
- mass density ([1]; 353.15 K, w1 = 0.6): 1087 ± 1 kg/m3
- mass density ([1]; 356.65 K, w1 = 0.01): 965.4 ± 0.9 kg/m3
- mass density ([1]; 356.65 K, w1 = 0.05): 973.4 ± 0.8 kg/m3
- mass density ([1]; 356.65 K, w1 = 0.1): 978.7 ± 0.9 kg/m3
- mass density ([1]; 356.65 K, w1 = 0.15): 987.6 ± 1 kg/m3
- mass density ([1]; 356.65 K, w1 = 0.2): 996.6 ± 0.9 kg/m3
- mass density ([1]; 356.65 K, w1 = 0.3): 1016 ± 1 kg/m3
- mass density ([1]; 356.65 K, w1 = 0.35): 1026.1 ± 0.9 kg/m3
- mass density ([1]; 356.65 K, w1 = 0.4): 1036.3 ± 0.9 kg/m3
- mass density ([1]; 356.65 K, w1 = 0.6): 1078 ± 1 kg/m3

Structure (SMILES): Cl.Nc1ccccc1 [aniline hydrochloride]
- vapor or sublimation pressure ([2]; 475.15 K): 23.25 ± 0.18 kPa
- vapor or sublimation pressure ([2]; 480.15 K): 27.25 ± 0.2 kPa
- vapor or sublimation pressure ([2]; 484.15 K): 31.25 ± 0.2 kPa
- vapor or sublimation pressure ([2]; 488.15 K): 34.25 ± 0.25 kPa
- vapor or sublimation pressure ([2]; 493.15 K): 41.25 ± 0.61 kPa
- vapor or sublimation pressure ([2]; 494.15 K): 44.25 ± 0.42 kPa
- vapor or sublimation pressure ([2]; 495.15 K): 45.25 ± 0.25 kPa
- vapor or sublimation pressure ([2]; 496.15 K): 46.25 ± 0.31 kPa
- vapor or sublimation pressure ([2]; 498.15 K): 49.25 ± 0.37 kPa
- vapor or sublimation pressure ([2]; 499.15 K): 51.25 ± 0.39 kPa
- vapor or sublimation pressure ([2]; 500.15 K): 52.75 ± 0.39 kPa
- vapor or sublimation pressure ([2]; 501.15 K): 54.75 ± 0.39 kPa
- vapor or sublimation pressure ([2]; 502.15 K): 56.25 ± 0.46 kPa
- vapor or sublimation pressure ([2]; 503.15 K): 59 ± 0.43 kPa
- vapor or sublimation pressure ([2]; 505.15 K): 62.25 ± 0.46 kPa
- vapor or sublimation pressure ([2]; 509.15 K): 71.25 ± 0.53 kPa
- vapor or sublimation pressure ([2]; 512.15 K): 79.25 ± 0.6 kPa
- vapor or sublimation pressure ([2]; 513.65 K): 83.75 ± 0.66 kPa
- vapor or sublimation pressure ([2]; 516.15 K): 91.25 ± 0.73 kPa
- vapor or sublimation pressure ([2]; 517.65 K): 97.25 ± 0.75 kPa
- vapor or sublimation pressure ([2]; 519.15 K): 101.5 ± 0.81 kPa
- vapor or sublimation pressure ([2]; 519.65 K): 105.25 ± 1.1 kPa
- vapor or sublimation pressure ([2]; 521.15 K): 112.25 ± 1.1 kPa
- vapor or sublimation pressure ([2]; 522.15 K): 118.25 ± 1.3 kPa
- vapor or sublimation pressure ([2]; 524.15 K): 131.25 ± 1.3 kPa
- vapor or sublimation pressure ([2]; 525.15 K): 136.25 ± 1.1 kPa
- vapor or sublimation pressure ([2]; 526.15 K): 141.25 ± 1.3 kPa
- vapor or sublimation pressure ([2]; 527.15 K): 148.25 ± 1.5 kPa

Structure (SMILES): O [water] + Cl.Nc1ccccc1
- mass density ([1]; 298.15 K, w2 = 0): 997.7 ± 0.3 kg/m3
- mass density ([1]; 303.15 K, w2 = 0): 996 ± 1 kg/m3
- mass density ([1]; 313.15 K, w2 = 0): 992 ± 1 kg/m3
- mass density ([1]; 323.15 K, w2 = 0): 986.6 ± 0.3 kg/m3
- mass density ([1]; 333.15 K, w2 = 0): 983.1 ± 0.4 kg/m3
- mass density ([1]; 343.15 K, w2 = 0): 977.3 ± 0.4 kg/m3
- mass density ([1]; 353.15 K, w2 = 0): 971.8 ± 0.4 kg/m3
- mass density ([1]; 356.65 K, w2 = 0): 963.9 ± 0.7 kg/m3
